Measurements published in patent US20240285540A1, “FUNCTIONAL THERAPEUTIC INDEX IN THE TREATMENT OF PERIPHERAL IMMUNE DYSFUNCTION” (priority 2023, published 2024).
Marks after values point to notes of the source that are not given here. Primed or numbered codes have the meaning given here. Ends that are not written are not given here. bexarotene = RXR ligand attached at the C-terminus; adapalene = RARβ/γ ligand, attached at C-terminus; GW7647″ = PPARα ligand, attached at C-terminus; GW4064 = FXR ligand, attached at C-terminus

System: C2C12 myoblast cell line
Experiment: C2C12 myoblast differentiation assay (creatine kinase)
Format: cell-based
Conditions: 96 hours, relative to imm3SVD peptide (=100)
Procedure: C2C12 myoblast cell line (ATCC, Manassas, VA) was cultured in DMEM medium supplemented with 10% FBS and 1% penicillin/streptomycin. For differentiation, cells were cultured in the same medium, except that 10% FBS was replaced by 2% horse serum. Peptides and NR ligands were added at the indicated concentrations and cells were harvested 96 hours later for assay. Cell extracts were assayed for creatine kinase (CK) per mg protein. CK was measured using the ECPK-100 kit from BioAssay Systems (Hayward, CA). Protein was assayed using the BCA protein assay kit from Thermofisher Scientific (Waltham, MA). CK activities and p values were expressed relative to imm3SVD peptide (=100). **p<0.01; *p<00.05.

[1] = Peptide 0.66 uM, no added free ligand

Compound | CK (units/mg) (Added ligand 2 uM together with imm3SVD peptide 0.66 uM) | CK (units/mg) [1]
CN1c2ccccc2N=C(c2ccc(C(=O)O)cc2)c2cc3c(cc21)C(C)(C)CCC3(C)C [HX600] | 30.3 ± 16.0* % of imm3SVD peptide | –
imm3adp: KKGFYKKKQCRPSKGRKRGFCWSVDK C-terminally liganded with adapalene (RARß/γ ligand) (KKGFYKKKQCRPSKGRKRGFCWSVDK-adapalene; cysteine pairing not given here) | – | 185.8 ± 23.5** % of imm3SVD peptide
imm3bex: SDKKGFYKKKQCRPSKGRKRGFCWSVDK C-terminally liganded with bexarotene (RXR ligand) (SDKKGFYKKKQCRPSKGRKRGFCWSVDK-bexarotene; cysteine pairing not given here) | – | 121.0 ± 6.6* % of imm3SVD peptide
imm3fxr: SDKKGFYKKKQCRPSKGRKRGFCWSVDK C-terminally liganded with GW4064 (FXR ligand) (SDKKGFYKKKQCRPSKGRKRGFCWSVDK-GW4064; cysteine pairing not given here) | – | 136.8 ± 19.6* % of imm3SVD peptide
imm3ppa: SDKKGFYKKKQCRPSKGRKRGFCWSVDK C-terminally liganded with GW7647 (PPARα ligand) (SDKKGFYKKKQCRPSKGRKRGFCWSVDK-{GW7647″}; cysteine pairing not given here) | – | 155.9 ± 18.8** % of imm3SVD peptide
